Source: patent US5516790A, “Synthesis and application of alkyl-substituted dibenzofurans as antitumorigenic agents” (Texas A&M University System Technology Licensing Office, priority 1994, dated 1996)

Assays:
[1] = test system: female rat uterus; assay: Antiestrogenic effect on uterine wet weight, immature female Sprague-Dawley rats (Example 8); format: in vivo
[2] = test system: estrogen receptor (ER); assay: Uterine estrogen receptor levels, hydroxyapatite assay (Example 8); format: in vivo, female Sprague-Dawley rats
Protocol: A second group of animals was similarly treated with corn oil, TCDD, MCDF, or TCDD plus MCDF, all administered in corn oil at 10 ml/kg and terminated 72 hours later.
(§1) The animals were terminated by cervical dislocation. Livers were perfused with ice-cold TEDG buffer (10 mM Tris-HCl, 1.5 mM EDTA-4Na, 1 mM dithiothreitol, 10% glycerol (v/v), pH 7.4). Following perfusion in situ, livers were removed, weighed, and homogenized in ice-cold TEDG buffer. Uteri were also removed, weighed, and homogenized in ice-cold buffer. The homogenates were then centrifuged at 800×g ([…]) for 15 minutes and the nuclear pellets were stored at -80° C. The supernatants were further centrifuged at 180,000× g for 1.5 hours. The cytosolic supernatant was also stored at -80° C. Estrogen and progesterone receptor levels were determined within 7 days.
(§2) Estrogen (ER) and progesterone (PR) receptor levels were determined by the hydroxyapatite assay as described by Clark et al. (J. Steroid Biochem. 16:323-328, 1982) and incorporated herein by reference. […] Following the incubations, samples were counted and specific binding was calculated by subtraction of nonspecific from total binding. Assuming one steroid molecule binds to one estrogen/progesterone receptor, the number of moles of receptor can be calculated given the specific activity of the radioligand. The data presented in Tables 1 through 6 are means ± SD using at least four animals per treatment group. Significant differences were determined by analysis of variance.

[3] = test system: progesterone receptor (PR); assay: Uterine progesterone receptor levels, hydroxyapatite assay (Example 8); format: in vivo, female Sprague-Dawley rats
Protocol: as §1, §2

[4] = Table 3: 50 μmol/kg + E-2 (2 × 10 μg/rat)
[5] = Table 3: compound alone, 50 μmol/kg (17β-estradiol: 2 × 10 μg/rat)
[6] = 150 μmol/kg + E-2 (2 × 10 μg/rat), run A
[7] = compound alone, 150 μmol/kg (17β-estradiol: 2 × 10 μg/rat), run A
[8] = Table 2: 50 μmol/kg + E-2 (2 × 10 μg/rat)
[9] = Table 2: compound alone, 50 μmol/kg (17β-estradiol: 2 × 10 μg/rat)
[10] = 150 μmol/kg + E-2 (2 × 10 μg/rat), run B
[11] = compound alone, 150 μmol/kg (17β-estradiol: 2 × 10 μg/rat), run B
[12] = dose-response, 10 μmol/kg + 17β-estradiol (2 × 10 μg/rat)
[13] = dose-response, 25 μmol/kg + 17β-estradiol (2 × 10 μg/rat)
[14] = dose-response, 50 μmol/kg + 17β-estradiol (2 × 10 μg/rat)
[15] = dose-response, 150 μmol/kg + 17β-estradiol (2 × 10 μg/rat)
[16] = dose-response, 2 μmol/kg + 17β-estradiol (2 × 10 μg/rat)

Cc1cc2c(cc1Br)oc1cc(Br)c(Br)cc12
Uterine Wet Weight [1, 4]: 0.259 ± 0.020 % body wt | Uterine Wet Weight [1, 5]: 0.153 ± 0.003 % body wt | Estrogen Receptor Levels, Cytosolic [2, 4]: 133.3 ± 6.7 fmol/mg protein | Estrogen Receptor Levels, Nuclear [2, 4]: 80.0 ± 4.8 fmol/mg protein | Estrogen Receptor Levels, Cytosolic [2, 5]: 128.2 ± 7.7 fmol/mg protein | Estrogen Receptor Levels, Nuclear [2, 5]: 64.3 ± 4.6 fmol/mg protein | Progesterone Receptor Levels, Cytosolic [3, 4]: 505 ± 35 fmol/mg protein | Progesterone Receptor Levels, Nuclear [3, 4]: 221 ± 15 fmol/mg protein | Progesterone Receptor Levels, Cytosolic [3, 5]: 362 ± 22 fmol/mg protein | Progesterone Receptor Levels, Nuclear [3, 5]: 270 ± 16 fmol/mg protein

Cc1cc(Cl)c2oc3cc(Cl)cc(Cl)c3c2c1 [8-Methyl-1,3,6-triCDF]
Uterine Wet Weight [1, 6]: 0.212 ± 0.021 % body wt | Uterine Wet Weight [1, 7]: 0.089 ± 0.008 % body wt | Estrogen Receptor Levels, Cytosolic [2, 6]: 65.9 ± 77.5 fmol/mg protein | Estrogen Receptor Levels, Nuclear [2, 6]: 20.8 ± 70.5 fmol/mg protein | Estrogen Receptor Levels, Cytosolic [2, 7]: 54.1 ± 6.2 fmol/mg protein | Estrogen Receptor Levels, Nuclear [2, 7]: 38.1 ± 5.8 fmol/mg protein | Progesterone Receptor Levels, Cytosolic [3, 6]: 838 ± 66 fmol/mg protein | Progesterone Receptor Levels, Nuclear [3, 6]: 203 ± 35 fmol/mg protein | Progesterone Receptor Levels, Cytosolic [3, 7]: 686 ± 77 fmol/mg protein | Progesterone Receptor Levels, Nuclear [3, 7]: 188 ± 29 fmol/mg protein

Cc1cc2c(cc1Cl)oc1cc(Cl)c(Cl)cc12
Uterine Wet Weight [1, 4]: 0.237 ± 0.007 % body wt | Uterine Wet Weight [1, 5]: 0.138 ± 0.026 % body wt | Estrogen Receptor Levels, Cytosolic [2, 4]: 85.7 ± 4.3 fmol/mg protein | Estrogen Receptor Levels, Nuclear [2, 4]: 25.7 ± 1.3 fmol/mg protein | Estrogen Receptor Levels, Cytosolic [2, 5]: 113.9 ± 5.7 fmol/mg protein | Estrogen Receptor Levels, Nuclear [2, 5]: 47.8 ± 2.4 fmol/mg protein | Progesterone Receptor Levels, Cytosolic [3, 4]: 607 ± 36 fmol/mg protein | Progesterone Receptor Levels, Nuclear [3, 4]: 204 ± 12 fmol/mg protein | Progesterone Receptor Levels, Cytosolic [3, 5]: 554 ± 33 fmol/mg protein | Progesterone Receptor Levels, Nuclear [3, 5]: 177 ± 11 fmol/mg protein

Cc1cc2c(cc1Cl)oc1cc(Cl)cc(Cl)c12 [8-Methyl-1,3,7-triCDF, 8-Methyl-1,3,7-trichlorodibenzofuran]
Uterine Wet Weight [1, 8]: 0.181 ± 0.007 % body wt | Uterine Wet Weight [1, 9]: 0.127 ± 0.019 % body wt | Estrogen Receptor Levels, Cytosolic [2, 8]: 119.0 ± 14.3 fmol/mg protein | Estrogen Receptor Levels, Nuclear [2, 8]: 51.1 ± 7.4 fmol/mg protein | Estrogen Receptor Levels, Cytosolic [2, 9]: 72.8 ± 8.3 fmol/mg protein | Estrogen Receptor Levels, Nuclear [2, 9]: 26.4 ± 5.1 fmol/mg protein | Progesterone Receptor Levels, Cytosolic [3, 8]: 1025 ± 151 fmol/mg protein | Progesterone Receptor Levels, Nuclear [3, 8]: 952 ± 113 fmol/mg protein | Progesterone Receptor Levels, Cytosolic [3, 9]: 503 ± 63 fmol/mg protein | Progesterone Receptor Levels, Nuclear [3, 9]: 795 ± 92 fmol/mg protein

CC(C)(C)c1cc(Cl)cc2c1oc1cc(Cl)cc(Cl)c12 [6-t-Butyl-1,3,8-triCDF]
Uterine Wet Weight [1, 10]: 0.247 ± 0.004 % body wt | Uterine Wet Weight [1, 11]: 0.122 ± 0.013 % body wt | Estrogen Receptor Levels, Cytosolic [2, 10]: 108.6 ± 11.4 fmol/mg protein | Estrogen Receptor Levels, Nuclear [2, 10]: 41.7 ± 2.1 fmol/mg protein | Estrogen Receptor Levels, Cytosolic [2, 11]: 85.5 ± 4.3 fmol/mg protein | Estrogen Receptor Levels, Nuclear [2, 11]: 41.4 ± 2.1 fmol/mg protein | Progesterone Receptor Levels, Cytosolic [3, 10]: 1844 ± 77 fmol/mg protein | Progesterone Receptor Levels, Nuclear [3, 10]: 270 ± 19 fmol/mg protein | Progesterone Receptor Levels, Cytosolic [3, 11]: 1109 ± 83 fmol/mg protein | Progesterone Receptor Levels, Nuclear [3, 11]: 211 ± 15 fmol/mg protein

Cc1cc(Cl)cc2c1oc1cc(Cl)c(Cl)cc12 [6-Methyl-2,3,8-triCDF, 6-methyl-2,3,8-trichlorodibenzofuran]
Uterine Wet Weight [1, 8]: 0.204 ± 0.020 % body wt | Uterine Wet Weight [1, 9]: 0.125 ± 0.024 % body wt | Estrogen Receptor Levels, Cytosolic [2, 8]: 105.3 ± 12.2 fmol/mg protein | Estrogen Receptor Levels, Nuclear [2, 8]: 70.8 ± 8.1 fmol/mg protein | Estrogen Receptor Levels, Cytosolic [2, 9]: 84.3 ± 9.3 fmol/mg protein | Estrogen Receptor Levels, Nuclear [2, 9]: 55.8 ± 7.1 fmol/mg protein | Progesterone Receptor Levels, Cytosolic [3, 8]: 1062 ± 121 fmol/mg protein | Progesterone Receptor Levels, Nuclear [3, 8]: 622 ± 71 fmol/mg protein | Progesterone Receptor Levels, Cytosolic [3, 9]: 356 ± 65 fmol/mg protein | Progesterone Receptor Levels, Nuclear [3, 9]: 395 ± 52 fmol/mg protein

CCCc1cc(Cl)cc2c1oc1cc(Cl)cc(Cl)c12 [6-Propyl-1,3,8-Trichlorodibenzofuran]
Uterine Wet Weight [1, 12]: 0.192 ± 0.013 % body wt | Uterine Wet Weight [1, 13]: 0.170 ± 0.010 % body wt | Uterine Wet Weight [1, 14]: 0.202 ± 0.014 % body wt | Uterine Wet Weight [1, 15]: 0.216 ± 0.012 % body wt | Estrogen Receptor Levels, Cytosolic [2, 12]: 105.5 ± 5.3 fmol/mg protein | Estrogen Receptor Levels, Nuclear [2, 12]: 81.5 ± 4.9 fmol/mg protein | Estrogen Receptor Levels, Cytosolic [2, 13]: 87.8 ± 4.4 fmol/mg protein | Estrogen Receptor Levels, Nuclear [2, 13]: 56.6 ± 2.8 fmol/mg protein | Estrogen Receptor Levels, Cytosolic [2, 14]: 66.7 ± 3.3 fmol/mg protein | Estrogen Receptor Levels, Nuclear [2, 14]: 41.1 ± 2.1 fmol/mg protein | Estrogen Receptor Levels, Cytosolic [2, 15]: 88.2 ± 4.4 fmol/mg protein | Estrogen Receptor Levels, Nuclear [2, 15]: 35.6 ± 1.8 fmol/mg protein | Progesterone Receptor Levels, Cytosolic [3, 12]: 1501 ± 105 fmol/mg protein | Progesterone Receptor Levels, Nuclear [3, 12]: 850 ± 68 fmol/mg protein | Progesterone Receptor Levels, Cytosolic [3, 13]: 1055 ± 74 fmol/mg protein | Progesterone Receptor Levels, Nuclear [3, 13]: 515 ± 41 fmol/mg protein | Progesterone Receptor Levels, Cytosolic [3, 14]: 1105 ± 77 fmol/mg protein | Progesterone Receptor Levels, Nuclear [3, 14]: 510 ± 41 fmol/mg protein | Progesterone Receptor Levels, Cytosolic [3, 15]: 1190 ± 83 fmol/mg protein | Progesterone Receptor Levels, Nuclear [3, 15]: 660 ± 53 fmol/mg protein

Cc1cc2c(cc1Cl)oc1cc(Cl)c(Cl)cc12 [8-methyl-2,3,7-triCDF, 8-Methyl-2,3,7-Trichlorodibenzofuran]
Uterine Wet Weight [1, 16]: 0.192 ± 0.013 % body wt | Uterine Wet Weight [1, 12]: 0.211 ± 0.019 % body wt | Uterine Wet Weight [1, 13]: 0.192 ± 0.004 % body wt | Uterine Wet Weight [1, 14]: 0.224 ± 0.012 % body wt | ED40-60 for Inhibition, ERc ([2]; cotreatment with 17β-estradiol): 2 µmol/kg | ED40-60 for Inhibition, ERn ([2]; cotreatment with 17β-estradiol): 10 µmol/kg | Estrogen Receptor Levels, Cytosolic [2, 16]: 131.8 ± 6.6 fmol/mg protein | Estrogen Receptor Levels, Nuclear [2, 16]: 90.2 ± 5.4 fmol/mg protein | Estrogen Receptor Levels, Cytosolic [2, 12]: 125.3 ± 6.3 fmol/mg protein | Estrogen Receptor Levels, Nuclear [2, 12]: 76.8 ± 3.8 fmol/mg protein | Estrogen Receptor Levels, Cytosolic [2, 13]: 117.5 ± 5.9 fmol/mg protein | Estrogen Receptor Levels, Nuclear [2, 13]: 72.8 ± 3.6 fmol/mg protein | Estrogen Receptor Levels, Cytosolic [2, 14]: 107.1 ± 5.4 fmol/mg protein | Estrogen Receptor Levels, Nuclear [2, 14]: 67.3 ± 4.0 fmol/mg protein | ED40-60 for Inhibition, PRc ([3]; cotreatment with 17β-estradiol): 2 µmol/kg | ED40-60 for Inhibition, PRn ([3]; cotreatment with 17β-estradiol): 10 µmol/kg | Progesterone Receptor Levels, Cytosolic [3, 16]: 1673 ± 117 fmol/mg protein | Progesterone Receptor Levels, Nuclear [3, 16]: 835 ± 50 fmol/mg protein | Progesterone Receptor Levels, Cytosolic [3, 12]: 1596 ± 112 fmol/mg protein | Progesterone Receptor Levels, Nuclear [3, 12]: 685 ± 62 fmol/mg protein | Progesterone Receptor Levels, Cytosolic [3, 13]: 1461 ± 102 fmol/mg protein | Progesterone Receptor Levels, Nuclear [3, 13]: 631 ± 37 fmol/mg protein | Progesterone Receptor Levels, Cytosolic [3, 14]: 856 ± 60 fmol/mg protein | Progesterone Receptor Levels, Nuclear [3, 14]: 605 ± 66 fmol/mg protein
